The values below come from patent US20260337189A1, “Cryptolepine Salt Derivative, Preparation Method, and Use Thereof” (ZHEJIANG XINNONG CHEMICAL CO., LTD., priority 2023, published 2026).

The subject of one assay is rice sheath blight. Put plainly: Test of resistance to rice sheath blight (bactericidal activity test). The note with it: for Resistance to rice sheath blight: 400 mg/L, rice seedlings, sprayed 24 h before inoculation, 6 days after inoculation, visual inspection; for bactericidal activity against rice sheath blight: live pot test, Table 5, 400 mg/L. The class given is in vivo. The protocol:
Bactericidal activity test, the determination procedure is as follows:
Test of resistance to rice sheath blight: Select uniformly growing rice seedlings and spray them on the leaves at the set concentration, set a water spraying group as blank control, every treatment was repeated twice. After 24 h, the rice seedlings were inoculated with rice sheath blight strains and placed at room temperature (25±4° C.) for normal management after inoculation. The prevention and control effect was investigated by visual inspection 6 days after inoculation.

Assay [1] relates to tobacco Mosaic virus (TMV). The experiment in a line: Anti-tobacco Mosaic virus (TMV) activity, overall comparison of Test Example 1. The class given is in vivo. The note with it: 500 μg/mL; Table 4. The protocol: Determination of anti-tobacco Mosaic virus (TMV) activity by the following procedure:
After weighing, cryptolepine salt derivative, ningnanmycin and the original drug of ribavirin were dissolved in DMF to obtain 1×10^5 μg/mL mother solution, and then diluted to the required concentration with 1%. Tween 80 aqueous solution.
Select the 3-5 leaf stage of tobacco Xanthi nc with uniform growth, spray the whole plant, repeat each treatment 3 times, and set 1%. Tween80 aqueous solution as control. 24 h later, the leaf surface was coated with emery (500 mesh), the disease venom was dipped with a brush, and the whole leaf surface was gently rubbed twice along the direction of the branch pulse by using the brush, the leaf was supported by palm of hand, the virus concentration was 10 μg/mL, and the leaf was washed by water after inoculation. After 3 days, the number of disease spots was recorded and the prevention and control effect was calculated.
Select the 3-5 leaf stage of tobacco Xanthi nc with uniform growth, use a brush to vaccinate the virus in the whole leaf, the virus concentration is 10 μg/mL, and the leaf was washed with running water after inoculation. After the leaves were dried, the whole plant was sprayed with test sample, repeated 3 times every treatment, and 1%. Tween 80 aqueous solution was set as control. After 3 days, the number of disease spots was recorded and the prevention and control effect was calculated.
Select the 3-5 leaf stage of tobacco Xanthi nc with uniform growth, mix the test sample agent with the same volume of virus juice to passivate for 30 min, friction inoculation, virus concentration 20 μg/mL, the leaf was washed with running water after inoculation, repeat 3 times, set 1%. Tween 80 aqueous solution as control. 3 days later, the number of disease spots was calculated.
Relative inhibition rate (%)=[(number of dead spots of control group-number of dead spots of test sample group)/number of dead spots of control group]×100%.
Anti-tobacco Mosaic virus passivation activity test of all compounds was at a treatment dose of 500 μg/mL. The positive control was the commercial anti-plant virus agent viriazole.

For the compound `CN1CCC(Nc2c3ccccc3[n+](C)c3c2[nH]c2ccccc23)CC1.[I-]` [Example 44], in the assay on rice sheath blight, the “Resistance to rice sheath blight” value was found to be 55 ± 5% and the “bactericidal activity against rice sheath blight” value (“bactericidal activity” for short) is recorded as “more than 50%”. Consider `CC(C)CCNc1c2ccccc2[n+](C)c2c1[nH]c1ccccc12` [Example 26], for which, in the assay on rice sheath blight, the “Resistance to rice sheath blight” value worked out at 35 ± 5%. Further, the “TMV activity compared with ribavirin” value in assay [1] is given as “better TMV activity than the ribavirin”.

On to `CN1CCCC(CNc2c3ccccc3[n+](C)c3c2[nH]c2ccccc23)C1` (stereo not drawn) [Example 46], for which, in the assay with rice sheath blight, the “Resistance to rice sheath blight” value stood at 30 ± 0%. Besides, the “TMV activity compared with ribavirin” value in assay [1] is “better TMV activity than the ribavirin”. As to `CCCNc1c2ccccc2[n+](C)c2c1[nH]c1ccccc12` [Example 23], the “Resistance to rice sheath blight” value with rice sheath blight was 30 ± 0%. As for `C[n+]1c2ccccc2cc2c1c1ccccc1n2S(=O)(=O)c1ccccc1` [Example 22], in the assay with rice sheath blight, the “Resistance to rice sheath blight” value is 45 ± 5% and the “bactericidal activity” value is “more than 50%”.

Turning to `Cc1ccc(S(=O)(=O)n2c3ccccc3c3c2cc2cc(Cl)ccc2[n+]3C)cc1.[Cl-]` [Example 12], the “Resistance to rice sheath blight” value with rice sheath blight came out at 40 ± 0%. As to `CCNCCNc1c2ccccc2[n+](C)c2c1[nH]c1ccccc12.[I-]` [Example 37], in the assay on rice sheath blight, the “Resistance to rice sheath blight” value is 40 ± 0%. Consider `COc1ccc2c(c1)cc1c(c3ccccc3n1S(=O)(=O)c1ccc(C)cc1)[n+]2C.[Cl-]` [Example 10], for which the “Resistance to rice sheath blight” value in the assay on rice sheath blight is on record as 30 ± 0%. Same read-out and setting: the figure for `COC(=O)c1ccc2c(c1)cc1c(c3ccccc3n1S(=O)(=O)c1ccc(C)cc1)[n+]2C.[Cl-]` [Example 15] is 40 ± 0%. Consider `CC(N)CNc1c2ccccc2[n+](C)c2c1[nH]c1ccccc12.[I-]` (stereo not drawn) [Example 35], for which the “Resistance to rice sheath blight” value in the assay on rice sheath blight was found to be 25 ± 5%. Also, the “TMV activity compared with ribavirin” value in assay [1] was “better TMV activity than the ribavirin”.

As to `CN1CCC(CNc2c3ccccc3[n+](C)c3c2[nH]c2ccccc23)CC1.[I-]` [Example 45], in the assay with rice sheath blight, the “Resistance to rice sheath blight” value turned out to be 30 ± 0%. In the case of `Cc1ccc(S(=O)(=O)n2c3ccccc3c3c2cc2ccccc2[n+]3C)cc1.[Cl-]` [Example 1], in the assay with rice sheath blight, the “Resistance to rice sheath blight” value was 95 ± 5% and the “bactericidal activity” value was “more than 95%”. For `C[n+]1c2ccccc2c(NCCCC2CCCCC2)c2[nH]c3ccccc3c21.[I-]` [Example 31], the “Resistance to rice sheath blight” value in the assay with rice sheath blight was 25 ± 5%.

With `C[n+]1c2ccccc2c(NCC2CCCNC2)c2[nH]c3ccccc3c21.[I-]` (stereo not drawn) [Example 43], the “Resistance to rice sheath blight” value in the assay with rice sheath blight stood at 30 ± 0%. The same measure, in the same setting: the figure for `C[n+]1c2ccccc2c(N2CCN(CCN)CC2)c2[nH]c3ccc(Cl)cc3c21.[I-]` [Reference Example 2, 11-(4′-(2-aminoethyl)-piperazinyl) substituted cryptolepine iodide salt, reference compound] is 0%. In the case of `Cc1ccc(S(=O)(=O)n2c3ccccc3c3c2cc2ccccc2[n+]3CC2CC2)cc1` [Example 18], in the assay on rice sheath blight, the “Resistance to rice sheath blight” value worked out at 45 ± 5% and the “bactericidal activity” value is “more than 50%”. For the same compound, in assay [1], the “TMV activity compared with ribavirin” value is reported as “better TMV activity than the ribavirin”.

Regarding `C[n+]1c2ccccc2c(NC2CCNCC2)c2[nH]c3ccccc3c21.[I-]` [Example 41], in the assay with rice sheath blight, the “Resistance to rice sheath blight” value was found to be 40 ± 0%. Besides, the “TMV activity compared with ribavirin” value in assay [1] is reported as “better TMV activity than the ribavirin”. Turning to `COc1ccc2c(c1)c1c(cc3ccccc3[n+]1C)n2S(=O)(=O)c1ccc(C)cc1.[Cl-]` [Example 3], in the assay on rice sheath blight, the “Resistance to rice sheath blight” value is listed as 35 ± 5%.

Regarding `Cc1ccc(S(=O)(=O)n2c3ccccc3c3c2cc2ccccc2[n+]3CC2CCCCC2)cc1` [Example 19], the “Resistance to rice sheath blight” value in the assay with rice sheath blight came to 20 ± 0%. In addition, in assay [1], the “TMV activity compared with ribavirin” value is listed as “better TMV activity than the ribavirin”. Turning to `Cc1ccc(S(=O)(=O)n2c3ccccc3c3c2cc2cc(F)ccc2[n+]3C)cc1.[Cl-]` [Example 11], the “Resistance to rice sheath blight” value in the assay on rice sheath blight is 40 ± 0%.

With `C[n+]1c2ccccc2c(NCC2CC2)c2[nH]c3ccccc3c21` [Example 28], in the assay with rice sheath blight, the “Resistance to rice sheath blight” value was 60 ± 0% and the “bactericidal activity” value is “more than 50%”. Consider `Cc1ccc(S(=O)(=O)n2c3ccc(Br)cc3c3c2cc2ccccc2[n+]3C)cc1.[Cl-]` [Example 6], for which the “Resistance to rice sheath blight” value in the assay on rice sheath blight was 40 ± 0%. Further, in assay [1], the “TMV activity compared with ribavirin” value is listed as “better TMV activity than the ribavirin” and the “anti-TMV activity compared with commercial Ningnanmycin” value is listed as “comparable to that of commercial Ningnanmycin”.

Turning to `C[n+]1c2ccccc2c(NCC2CCCCC2)c2[nH]c3ccccc3c21` [Example 30], the “Resistance to rice sheath blight” value with rice sheath blight is listed as 35 ± 5%. Take `Cc1ccc(S(=O)(=O)n2c3ccc(Cl)cc3c3c2cc2ccccc2[n+]3C)cc1.[Cl-]` [Example 5]: in the assay on rice sheath blight, the “Resistance to rice sheath blight” value came out at 55 ± 5% and the “bactericidal activity” value was “more than 50%”. Further, in assay [1], the “TMV activity compared with ribavirin” value is reported as “better TMV activity than the ribavirin” and the “anti-TMV activity compared with commercial Ningnanmycin” value is “comparable to that of commercial Ningnanmycin”. The corresponding values for `Cc1ccc(S(=O)(=O)n2c3ccccc3c3c2cc2ccccc2[n+]3CC(C)(C)C)cc1` [Example 20] are 55 ± 5%, “more than 50%”, “better TMV activity than the ribavirin” and “comparable to that of commercial Ningnanmycin”. Regarding `C[n+]1c2ccccc2c(NCCN)c2[nH]c3ccccc3c21.[I-]` [Example 32], the “Resistance to rice sheath blight” value in the assay on rice sheath blight is given as 30 ± 0%. On the same count and under the same terms, the figure for `CNCCCNc1c2ccccc2[n+](C)c2c1[nH]c1ccccc12.[I-]` [Example 38] is 30 ± 0%.

With `Cc1ccc(S(=O)(=O)n2c3ccc(C#N)cc3c3c2cc2ccccc2[n+]3C)cc1.[Cl-]` [Example 8], the “Resistance to rice sheath blight” value in the assay with rice sheath blight came out at 30 ± 0%. Consider `Cc1ccc(S(=O)(=O)n2c3ccccc3c3c2cc2ccc(C)cc2[n+]3C)cc1` [Example 16], for which, in the assay with rice sheath blight, the “Resistance to rice sheath blight” value worked out at 95 ± 5% and the “bactericidal activity” value is reported as “more than 95%”. In the case of `Cc1ccc(S(=O)(=O)n2c3ccccc3c3c2cc2cc(Br)ccc2[n+]3C)cc1.[Cl-]` [Example 13], the “Resistance to rice sheath blight” value in the assay with rice sheath blight was 35 ± 5%. In assay [1], the “TMV activity compared with ribavirin” value is given as “better TMV activity than the ribavirin” and the “anti-TMV activity compared with commercial Ningnanmycin” value is on record as “comparable to that of commercial Ningnanmycin”. With `CN(C)CC(C)(C)CNc1c2ccccc2[n+](C)c2c1[nH]c1ccccc12.[I-]` [Example 39], the “Resistance to rice sheath blight” value with rice sheath blight worked out at 25 ± 5%. With `Cc1ccc(S(=O)(=O)n2c3ccccc3c3c2cc2ccccc2[n+]3Cc2ccccc2)cc1` [Example 21], in the assay on rice sheath blight, the “Resistance to rice sheath blight” value is listed as 40 ± 0%. Moreover, in assay [1], the “TMV activity compared with ribavirin” value is on record as “better TMV activity than the ribavirin”. On to `Cc1ccc(S(=O)(=O)n2c3ccccc3c3c2cc2ccc(Cl)cc2[n+]3C)cc1` [Example 17], for which, in the assay with rice sheath blight, the “Resistance to rice sheath blight” value stood at 40 ± 0%. Regarding `C[n+]1c2ccccc2c(NCC(C)(C)N)c2[nH]c3ccccc3c21.[I-]` [Example 36], the “Resistance to rice sheath blight” value with rice sheath blight is 35 ± 5%. With `C[n+]1c2ccccc2c(NC2CCNC2)c2[nH]c3ccccc3c21.[I-]` (stereo not drawn) [Example 40], the “Resistance to rice sheath blight” value in the assay on rice sheath blight is listed as 20 ± 0%. Also, the “TMV activity compared with ribavirin” value in assay [1] is listed as “better TMV activity than the ribavirin”. In the case of `Cc1ccc(S(=O)(=O)n2c3ccccc3c3c2cc2cc(C)ccc2[n+]3C)cc1.[Cl-]` [Example 9], in the assay with rice sheath blight, the “Resistance to rice sheath blight” value worked out at 70 ± 0% and the “bactericidal activity” value is given as “more than 50%”. In the case of `Cc1ccc(S(=O)(=O)n2c3ccccc3c3c2cc2cc(C(F)(F)F)ccc2[n+]3C)cc1.[Cl-]` [Example 14], in the assay with rice sheath blight, the “Resistance to rice sheath blight” value turned out to be 60 ± 0% and the “bactericidal activity” value is “more than 50%”. On to `C[n+]1c2ccccc2cc2[nH]c3ccc(Br)cc3c21` [Reference Example 1, 5-methyl-7-bromo 5H-indolo[3,2-b]quinoline, reference compound], for which the “Resistance to rice sheath blight” value in the assay with rice sheath blight turned out to be 0%. As to `Cc1nc(C(F)(F)F)c(C(=O)Nc2c(Br)cc(OC(F)(F)F)cc2Br)s1` [Thifluzamide, thifluzamide, reference compound], the “Resistance to rice sheath blight” value in the assay on rice sheath blight amounted to 100%. In the case of `Cc1ccc(S(=O)(=O)n2c3ccc(C)cc3c3c2cc2ccccc2[n+]3C)cc1.[Cl-]` [Example 2], in the assay with rice sheath blight, the “Resistance to rice sheath blight” value stood at 40 ± 0%.
